In patent publication US20170211147A1, “METHOD OF PREDICTING REACTION TO SORAFENIB TREATMENT USING GENE POLYMORPHISM” (National Cancer Center, priority 2014, published 2017):

Experiments:
PLC/PRFS cell line = test: MTT assay, cell viability after sorafenib treatment; format: cell-based, human; settings: C/T genotype
Procedure: (§1) First, human hepatocellular carcinoma (HCC)-derived cell lines such as Hep3B, SNU182 and PLC/PRFS cell lines were purchased from Korean Cell Line Bank (KCLB, Seoul, Republic of Korea), and genomic DNA was extracted from the cell lines derived from human HCC using a MagAttract DNA mini M48 kit (Qiagen) according to a user manual of the kit.
(§2) Afterward, to confirm the sorafenib response in each cell line according to the SLC15A2 gene nucleotide polymorphism, each cell line was cultured in RPMI-1640 (Invitrogen, Carlsbad, Calif., USA) with 10%(v/v) fetal bovine serum (FBS) and 100 U/ml penicillin-streptomycin at 37° C. in 5% CO2. Next, for the MTT assay, cells obtained by the above-described culture were plated on 96-well plates at a density of 1×10^4 cells/well and treated with sorafenib for 48 hours in the RPMI-1640 used above.
(§3) Then, the number of viable cells was measured by performing the MTT assay (Promega Fitchburg, Wis., USA) according to a user manual of the MTT assay.

SNU182 cell line = test: as above; format: cell-based, human; settings: SNU182, T/T genotype
Procedure: as §1, §2, §3

Hep3B cell line = test: as above; format: cell-based, human; settings: C/C genotype, sorafenib for 48 hours
Procedure: as §1, §2, §3

liver cancer patients = test: Progression-free survival with sorafenib treatment by SLC15A2 genotype (Kaplan-Meier, Cox proportional hazard model); format: in vivo, human
Source text: Five coding variants were identified in the SLC15A2 gene by NGS analysis, and three non-synonymous SNVs (L350F, P409S and R509K), which may cause a functional alternation in gene product, were selected so as to analyze genotypes for 233 liver cancer patients that had received sorafenib treatment over 6 weeks.
Also, to confirm SNPs to be analyzed, 249 patients treated with sorafenib were genotyped using the MassARRAY system (Sequenom, San Diego, Calif., USA), thereby obtaining three SNP genotypes (C/C, C/T and T/T).
Specifically, the association between generic polymorphisms and risk for progression was assessed by a Cox proportional hazard model with adjustment by stage of hepatocellular carcinoma (HCC). Also, analyses of data obtained were performed using STATA version 10.1 (Stata Corp, College Station, Tex., USA).

CNC(=O)c1cc(Oc2ccc(NC(=O)Nc3ccc(Cl)c(C(F)(F)F)c3)cc2)ccn1 [sorafenib]
response to sorafenib compared with Hep3B cell line (C/C genotype) (PLC/PRFS cell line; 48 hours): stronger response | proliferation (PLC/PRFS cell line; sorafenib for 48 hours): dose-dependently inhibited | response to sorafenib compared with Hep3B cell line (C/C genotype) (SNU182 cell line; 48 hours): stronger response | proliferation (SNU182 cell line; sorafenib for 48 hours): dose-dependently inhibited | proliferation (Hep3B cell line): dose-dependently inhibited | progression-free survival (accumulative hazard ratio) (liver cancer patients): 2.46 | response to sorafenib treatment (liver cancer patients; subjects with C/T or T/T genotype compared with C/C genotype): stronger response
